Experimental data as given in the supplement of paper PMC10331698.
± gives the standard deviation of the averaged measurements.

Legend:
[1] = compound: O=S(=O)(OCC(F)(F)F)C(F)(F)C(F)(F)C(F)(F)C(F)(F)F [2,2,2-Trifluoroethyl perfluorobutanesulfonate]; assay: level (log10 ratio to DMSO vehicle control); higher = higher biomarker level / cell amount than vehicle control; conditions: in DMSO
Procedure: (§1)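 BioMAP Diversity Plus panel of 12 human primary cell co-culture systems (3C, 4H, LPS, SAg, BT, BF4T, BE3C, CASM3C, HDF3CGF, KF3CT, MyoF, Mphg). Compounds were added 1 h before stimulation and left for 24 h (MyoF 48 h; BT 72 h for soluble read-outs or 6 d for IgG). Biomarkers were read by ELISA, cytotoxicity by SRB, PBMC viability and proliferation by Alamar Blue. Each well value was divided by the mean of 8 DMSO control wells on the same plate and log10 transformed; duplicate blinded samples were tested at 4 concentrations.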

[2] = compound: OCC(F)(F)C(F)(F)C(F)(F)C(F)(F)C(F)(F)C(F)(F)C(F)(F)C(F)(F)C(F)(F)C(F)(F)C(F)(F)F [11:1 Fluorotelomer alcohol]; assay: as above; conditions: in DMSO
Procedure: as §1

Row | Test System | level (log10) ([1]; 6700 nM) | level (log10) ([1]; 20000 nM) | level (log10) ([1]; 60000 nM) | level (log10) ([2]; 1100 nM) | level (log10) ([2]; 3300 nM) | level (log10) ([2]; 10000 nM)
1 | HDF3CGF:PAI-I | -0.0125 ± 0.0092 | -0.02 ± 0.024 | -0.021 ± 0.0014 | 0.037 ± 0.0014 | 0.0515 ± 0.012 | 0.029 ± 0.075
2 | HDF3CGF:Proliferation 72hr | -0.046 | -0.0425 ± 0.029 | -0.1 ± 0.047 | -0.015 ± 0.065 | 0 ± 0.0099 | 0.021 ± 0.02
3 | HDF3CGF:SRB | 0.0205 ± 0.012 | 0.0125 ± 0.029 | 0.0325 ± 0.035 | -0.0055 ± 0.011 | -0.0055 ± 0.016 | 0.0315 ± 0.036
4 | HDF3CGF:TIMP-1 | -0.0095 ± 0.042 | 0.039 ± 0.0042 | 0.0325 ± 0.021 | -0.029 ± 0.024 | -0.07 ± 0.0085 | -0.033 ± 0.016
5 | HDF3CGF:TIMP-2 | 0.0105 ± 0.013 | 0.0375 ± 0.021 | 0.06 ± 0.0014 | 0.001 ± 0.0042 | -0.045 ± 0.016 | -0.0325 ± 0.013
6 | KF3CT:CCL2/MCP-1 | -0.018 ± 0.057 | -0.0485 ± 0.044 | -0.022 ± 0.014 | 0.0265 ± 0.013 | 0.0205 ± 0.00071 | 0.0305 ± 0.00071
7 | KF3CT:CD54/ICAM-1 | 0.015 ± 0.03 | -0.0055 ± 0.0092 | -0.006 ± 0.013 | -0.014 ± 0.0071 | -0.0295 ± 0.0021 | -0.0045 ± 0.012
8 | KF3CT:CXCL8/IL-8 | -0.0165 ± 0.0035 | 0.0045 ± 0.00071 | 0.017 ± 0.0057 | 0 ± 0.013 | 0.015 | 0.014 ± 0.025
9 | KF3CT:CXCL9/MIG | 0.023 ± 0.021 | 0.0095 ± 0.028 | 0.0015 ± 0.053 | 0.0015 ± 0.0035 | -0.004 | 0.005 ± 0.011
10 | KF3CT:CXCL10/IP-10 | 0.0345 ± 0.022 | 0.033 ± 0.041 | 0.031 ± 0.042 | 0.003 ± 0.0042 | -0.002 ± 0.0057 | 0.0085 ± 0.0035
11 | KF3CT:IL-1alpha | -0.011 ± 0.03 | -0.003 ± 0.011 | 0.0195 ± 0.0078 | 0.0015 ± 0.028 | -0.0425 ± 0.0064 | -0.021 ± 0.011
12 | KF3CT:MMP-9 | -0.012 ± 0.017 | -0.016 ± 0.035 | -0.001 ± 0.025 | -0.042 ± 0.0099 | -0.071 ± 0.027 | -0.0545 ± 0.026
13 | KF3CT:PAI-I | 0.0005 ± 0.028 | 0.003 ± 0.033 | 0.0265 ± 0.018 | -0.002 ± 0.0071 | -0.0055 ± 0.012 | 0.001 ± 0.023
14 | KF3CT:SRB | -0.001 | -0.0045 ± 0.0021 | -0.0025 ± 0.0092 | -0.01 ± 0.0057 | -0.0285 ± 0.005 | -0.014 ± 0.0057
15 | KF3CT:TIMP-2 | -0.049 ± 0.0057 | -0.0215 ± 0.049 | -0.0495 ± 0.00071 | -0.014 ± 0.0028 | -0.0405 ± 0.013 | 0.002 ± 0.016
16 | KF3CT:uPA | -0.0085 ± 0.0021 | -0.043 ± 0.079 | -0.075 ± 0.0042 | -0.0115 ± 0.015 | -0.0335 ± 0.00071 | -0.023 ± 0.016
17 | MyoF:CD106/VCAM-1 | -0.01 ± 0.011 | 0.026 ± 0.014 | -0.0075 ± 0.0021 | -0.0055 ± 0.037 | -0.0075 ± 0.022 | -0.0025 ± 0.00071
18 | MyoF:CXCL8/IL-8 | -0.003 ± 0.064 | 0.0405 ± 0.057 | 0.013 ± 0.09 | -0.0155 ± 0.035 | -0.0145 ± 0.037 | 0 ± 0.04
19 | MyoF:Collagen I | -0.0215 ± 0.0092 | -0.0045 ± 0.03 | -0.043 ± 0.023 | 0.051 ± 0.047 | 0.0475 ± 0.021 | 0.0435 ± 0.013
20 | MyoF:Collagen III | -0.013 ± 0.0085 | -0.006 ± 0.016 | -0.0365 ± 0.005 | 0.011 ± 0.0085 | -0.0005 ± 0.00071 | -0.001 ± 0.0071
